{
  "source": "paper PMC6886798",
  "about": "“Expression of myeloid Src-family kinases is associated with poor prognosis in AML and influences Flt3-ITD kinase inhibitor acquired resistance” (PLoS ONE, 2019)",
  "key": {"Hck T338M": {"target": "T1, Hck T338M (Homo sapiens, UniProt P08631, T333M)", "T1 construct": "Recombinant near-full-length kinases, consisting of the SH2, SH3 and kinase domains plus the negative regulatory tail; made in house; host or cells: E. coli BL21Star (DE3), co-expressed with Csk and PTP1B", "T1 sequence (P08631 78-526 T333M limits assumed)": "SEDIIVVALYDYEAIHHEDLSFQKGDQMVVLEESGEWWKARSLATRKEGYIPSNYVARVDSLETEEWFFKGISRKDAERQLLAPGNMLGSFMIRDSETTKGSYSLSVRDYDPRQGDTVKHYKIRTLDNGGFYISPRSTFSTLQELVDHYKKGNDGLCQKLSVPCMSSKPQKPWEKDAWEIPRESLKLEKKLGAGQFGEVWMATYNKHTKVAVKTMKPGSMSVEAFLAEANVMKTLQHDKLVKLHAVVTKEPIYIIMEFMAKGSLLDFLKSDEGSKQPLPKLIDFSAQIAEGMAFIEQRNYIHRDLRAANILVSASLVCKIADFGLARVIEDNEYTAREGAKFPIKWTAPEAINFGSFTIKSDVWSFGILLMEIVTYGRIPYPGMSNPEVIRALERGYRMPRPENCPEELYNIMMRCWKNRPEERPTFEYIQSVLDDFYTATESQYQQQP", "assay": "Z'-LYTE in vitro kinase assay", "type": "biochemical"}, "Fgr T338M": {"target": "T2, Fgr T338M (Homo sapiens, UniProt P09769, T334M)", "T2 construct": "Recombinant near-full-length kinases, consisting of the SH2, SH3 and kinase domains plus the negative regulatory tail; made in house; host or cells: E. coli BL21Star (DE3), co-expressed with Csk and PTP1B", "assay": "Z'-LYTE in vitro kinase assay", "type": "biochemical", "protocol": "(§2) Assays were performed in quadruplicate in 384-well low volume, non-binding, black polystyrene microplates (Corning) according to the manufacturer’s instructions. Briefly, this assay measures phosphorylation of the Tyr2 peptide substrate which is tagged with coumarin and fluorescein on its N- and C-termini, respectively, to form a FRET pair. After the kinase reaction, a development step involves site-specific proteolytic cleavage of the unphosphorylated but not the phosphorylated peptide. […] Kinase reactions were run in 50 mM HEPES, pH 7.5, 10 mM MgCl2, 1 mM EGTA, and 0.01% BRIJ-35 (buffer supplied by the manufacturer). […] Following incubation for 1 h at ambient temperature, reactions were quenched by addition of the development protease, and coumarin and fluorescein fluorescence were measured 1 h later on a Molecular Devices SpectraMax M5 plate reader. […] For experiments with inhibitors, compounds were preincubated with kinase for 30 min prior to initiation of the reaction by the addition of ATP."}, "Fgr T338L": {"target": "T3, Fgr T338L (Homo sapiens, UniProt P09769, T334L)", "T3 construct": "Recombinant near-full-length kinases, consisting of the SH2, SH3 and kinase domains plus the negative regulatory tail; made in house; host or cells: E. coli BL21Star (DE3), co-expressed with Csk and PTP1B", "assay": "Z'-LYTE in vitro kinase assay", "type": "biochemical", "settings": "read-out: A-419259 IC50, Fig 5B, ATP at Km, mean ± SE, three independent determinations", "protocol": "as §2"}, "Lyn T338L": {"target": "T4, Lyn T338L (Homo sapiens, UniProt P07948, T319L)", "T4 construct": "Recombinant near-full-length kinases, consisting of the SH2, SH3 and kinase domains plus the negative regulatory tail; made in house; host or cells: E. coli BL21Star (DE3), co-expressed with Csk and PTP1B", "T4 sequence (P07948 63-512 T319L limits assumed)": "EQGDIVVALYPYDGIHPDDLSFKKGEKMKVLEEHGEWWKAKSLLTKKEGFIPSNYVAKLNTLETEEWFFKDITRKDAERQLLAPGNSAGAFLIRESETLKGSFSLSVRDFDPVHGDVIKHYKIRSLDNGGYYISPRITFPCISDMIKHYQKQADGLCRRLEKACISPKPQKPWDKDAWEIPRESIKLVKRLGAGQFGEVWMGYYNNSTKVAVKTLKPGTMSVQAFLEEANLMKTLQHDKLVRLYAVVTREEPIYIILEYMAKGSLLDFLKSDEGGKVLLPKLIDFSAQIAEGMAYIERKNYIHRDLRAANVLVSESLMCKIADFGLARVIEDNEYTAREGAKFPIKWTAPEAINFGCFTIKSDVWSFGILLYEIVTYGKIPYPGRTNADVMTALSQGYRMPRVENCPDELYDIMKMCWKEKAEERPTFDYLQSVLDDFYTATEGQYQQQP", "assay": "Z'-LYTE in vitro kinase assay", "type": "biochemical", "settings": "read-out: A-419259 IC50, Fig 5B, ATP at Km, mean ± SE, three independent determinations"}, "Flt3-D835Y kinase domain": {"target": "T5, Flt3-D835Y kinase domain (Homo sapiens, UniProt P36888, D835Y)", "T5 construct": "Recombinant purified Flt3 wild-type, Flt3-ITD and Flt3-D835Y kinase domains were purchased from ThermoFisher; purchased ThermoFisher", "assay": "Z'-LYTE in vitro kinase assay", "type": "biochemical", "settings": "Flt3 D835Y mutant", "protocol": "as §2"}, "[1]": {"target": "T6, ABL1(T315I)-phosphorylated (Homo sapiens, UniProt P00519, T315I)", "T6 construct": "purchased Eurofins/DiscoverX KINOMEscan scanMAX", "assay": "KINOMEscan", "type": "binding", "settings": "1.0 µM", "description": "(§1) Kinase retention to the immobilized ligand is then measured using quantitative real-time PCR for each kinase-specific DNA barcode."}, "CDK4-cyclinD1": {"target": "T7, CDK4-cyclinD1 (Homo sapiens, UniProt P11802)", "T7 construct": "purchased Eurofins/DiscoverX KINOMEscan scanMAX", "assay": "KINOMEscan", "type": "binding", "settings": "1.0 µM", "description": "as §1"}, "[2]": {"target": "T8, JAK1(JH1domain-catalytic) (Homo sapiens, UniProt P23458)", "T8 construct": "JAK1(JH1domain-catalytic); purchased Eurofins/DiscoverX KINOMEscan scanMAX", "assay": "KINOMEscan", "type": "binding", "settings": "1.0 µM", "description": "as §1"}, "MET(Y1235D)": {"target": "T9, MET(Y1235D) (Homo sapiens, UniProt P08581, Y1235D)", "T9 construct": "purchased Eurofins/DiscoverX KINOMEscan scanMAX", "T9 sequence (P08581 25-1390 Y1235D)": "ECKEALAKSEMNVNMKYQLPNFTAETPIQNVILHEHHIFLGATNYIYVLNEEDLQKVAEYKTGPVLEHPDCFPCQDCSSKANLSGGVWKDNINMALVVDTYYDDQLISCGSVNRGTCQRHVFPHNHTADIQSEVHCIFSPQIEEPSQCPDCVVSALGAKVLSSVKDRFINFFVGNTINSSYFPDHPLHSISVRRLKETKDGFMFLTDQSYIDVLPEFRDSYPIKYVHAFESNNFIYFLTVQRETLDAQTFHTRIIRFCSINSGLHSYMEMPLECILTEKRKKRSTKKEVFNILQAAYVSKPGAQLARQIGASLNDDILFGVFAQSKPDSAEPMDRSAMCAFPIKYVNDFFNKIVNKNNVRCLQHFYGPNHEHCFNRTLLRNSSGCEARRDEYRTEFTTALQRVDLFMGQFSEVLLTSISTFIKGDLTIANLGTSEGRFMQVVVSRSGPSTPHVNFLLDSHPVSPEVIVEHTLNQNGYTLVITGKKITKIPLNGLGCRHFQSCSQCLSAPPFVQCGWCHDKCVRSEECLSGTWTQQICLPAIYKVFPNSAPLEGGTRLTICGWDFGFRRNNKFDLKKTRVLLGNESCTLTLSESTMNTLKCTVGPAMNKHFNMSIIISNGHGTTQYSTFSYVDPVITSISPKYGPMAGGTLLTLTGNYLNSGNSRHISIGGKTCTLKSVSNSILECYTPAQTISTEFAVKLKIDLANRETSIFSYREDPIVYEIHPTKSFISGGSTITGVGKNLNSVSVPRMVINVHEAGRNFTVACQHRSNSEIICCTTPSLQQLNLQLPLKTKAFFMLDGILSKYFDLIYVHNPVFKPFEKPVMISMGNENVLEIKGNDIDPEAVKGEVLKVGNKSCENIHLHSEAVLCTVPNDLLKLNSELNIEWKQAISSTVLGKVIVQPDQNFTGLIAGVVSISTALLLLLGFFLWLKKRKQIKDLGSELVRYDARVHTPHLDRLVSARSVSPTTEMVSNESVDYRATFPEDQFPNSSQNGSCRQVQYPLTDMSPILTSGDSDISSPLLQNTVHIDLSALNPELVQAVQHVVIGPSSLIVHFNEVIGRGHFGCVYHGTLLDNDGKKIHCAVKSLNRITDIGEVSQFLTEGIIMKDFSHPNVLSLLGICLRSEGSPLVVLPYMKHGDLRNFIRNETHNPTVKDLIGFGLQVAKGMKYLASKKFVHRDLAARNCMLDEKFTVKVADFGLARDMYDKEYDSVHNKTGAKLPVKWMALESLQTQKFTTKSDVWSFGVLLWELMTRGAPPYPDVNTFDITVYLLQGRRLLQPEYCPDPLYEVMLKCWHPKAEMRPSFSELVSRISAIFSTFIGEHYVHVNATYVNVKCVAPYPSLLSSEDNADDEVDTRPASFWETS", "assay": "KINOMEscan", "type": "binding", "settings": "1.0 µM", "description": "as §1"}, "NEK6": {"target": "T10, NEK6 (Homo sapiens, UniProt Q9HC98)", "T10 construct": "purchased Eurofins/DiscoverX KINOMEscan scanMAX", "assay": "KINOMEscan", "type": "binding", "settings": "1.0 µM", "description": "as §1"}, "PIK3CA(I800L)": {"target": "T11, PIK3CA(I800L) (Homo sapiens, UniProt P42336, I800L)", "T11 construct": "purchased Eurofins/DiscoverX KINOMEscan scanMAX", "assay": "KINOMEscan", "type": "binding", "settings": "1.0 µM", "description": "as §1"}, "TEC": {"target": "T12, TEC (Homo sapiens, UniProt P42680)", "T12 construct": "purchased Eurofins/DiscoverX KINOMEscan scanMAX", "assay": "KINOMEscan", "type": "binding", "settings": "1.0 µM", "description": "as §1"}, "YES": {"target": "T13, YES (Homo sapiens, UniProt P07947)", "T13 construct": "purchased Eurofins/DiscoverX (KINOMEscan scanMAX service)", "assay": "KINOMEscan", "type": "binding", "settings": "1.0 µM", "description": "as §1"}, "CDC2L5": {"target": "CDC2L5 (Homo sapiens, UniProt Q14004)", "sequence (Q14004 whole entry)": "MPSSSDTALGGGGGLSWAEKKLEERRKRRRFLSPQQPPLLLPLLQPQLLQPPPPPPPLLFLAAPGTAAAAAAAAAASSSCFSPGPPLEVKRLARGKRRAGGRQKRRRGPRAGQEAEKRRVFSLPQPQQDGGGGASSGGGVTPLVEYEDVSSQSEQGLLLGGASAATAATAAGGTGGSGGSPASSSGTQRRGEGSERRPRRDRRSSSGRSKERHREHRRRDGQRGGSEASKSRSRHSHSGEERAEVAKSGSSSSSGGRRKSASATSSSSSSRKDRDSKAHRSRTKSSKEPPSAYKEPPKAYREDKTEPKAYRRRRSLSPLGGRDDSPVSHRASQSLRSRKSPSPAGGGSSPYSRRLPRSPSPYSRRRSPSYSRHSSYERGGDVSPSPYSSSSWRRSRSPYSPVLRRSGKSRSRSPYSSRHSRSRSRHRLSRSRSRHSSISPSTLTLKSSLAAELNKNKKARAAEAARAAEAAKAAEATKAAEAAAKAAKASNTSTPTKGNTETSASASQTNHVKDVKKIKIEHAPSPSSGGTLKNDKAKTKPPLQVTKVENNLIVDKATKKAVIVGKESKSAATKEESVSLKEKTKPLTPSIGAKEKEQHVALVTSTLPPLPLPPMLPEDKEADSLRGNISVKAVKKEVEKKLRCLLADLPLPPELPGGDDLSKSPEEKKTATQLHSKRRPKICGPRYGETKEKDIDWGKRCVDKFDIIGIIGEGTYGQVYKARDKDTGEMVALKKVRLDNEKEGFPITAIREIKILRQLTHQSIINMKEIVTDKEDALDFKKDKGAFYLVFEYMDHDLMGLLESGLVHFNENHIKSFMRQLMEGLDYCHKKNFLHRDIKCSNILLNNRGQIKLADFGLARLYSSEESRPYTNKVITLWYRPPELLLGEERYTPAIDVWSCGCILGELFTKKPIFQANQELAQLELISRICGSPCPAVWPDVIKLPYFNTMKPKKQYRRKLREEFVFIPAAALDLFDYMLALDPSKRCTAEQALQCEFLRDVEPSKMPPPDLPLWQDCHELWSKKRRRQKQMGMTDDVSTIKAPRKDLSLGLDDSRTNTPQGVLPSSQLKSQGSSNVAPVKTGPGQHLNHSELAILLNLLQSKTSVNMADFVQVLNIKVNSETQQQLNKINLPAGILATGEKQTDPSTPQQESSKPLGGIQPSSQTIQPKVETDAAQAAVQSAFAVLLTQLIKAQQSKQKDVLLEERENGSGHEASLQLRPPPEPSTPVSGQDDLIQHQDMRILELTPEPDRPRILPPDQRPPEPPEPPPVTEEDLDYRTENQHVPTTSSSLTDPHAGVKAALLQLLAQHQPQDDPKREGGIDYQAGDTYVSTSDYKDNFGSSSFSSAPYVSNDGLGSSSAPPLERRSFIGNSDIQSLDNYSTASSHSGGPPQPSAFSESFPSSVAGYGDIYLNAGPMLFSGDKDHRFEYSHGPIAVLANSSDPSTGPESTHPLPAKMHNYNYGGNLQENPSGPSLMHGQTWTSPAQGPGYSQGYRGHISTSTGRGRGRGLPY", "settings": "1.0 µM", "description": "as §1"}, "PKNB(M.tuberculosis)": {"target": "PKNB(M.tuberculosis) (Mycobacterium tuberculosis, UniProt P9WI81)", "settings": "1.0 µM", "description": "as §1"}, "LYN": {"target": "T14, LYN (Homo sapiens, UniProt P07948)", "T14 construct": "purchased Eurofins/DiscoverX KINOMEscan scanMAX", "assay": "KINOMEscan", "type": "binding", "settings": "1.0 µM"}, "VEGFR2": {"target": "T15, VEGFR2 (Homo sapiens, UniProt P35968)", "T15 construct": "DNA tag (qPCR barcode); purchased Eurofins/DiscoverX KINOMEscan scanMAX", "T15 sequence (P35968 20-1356)": "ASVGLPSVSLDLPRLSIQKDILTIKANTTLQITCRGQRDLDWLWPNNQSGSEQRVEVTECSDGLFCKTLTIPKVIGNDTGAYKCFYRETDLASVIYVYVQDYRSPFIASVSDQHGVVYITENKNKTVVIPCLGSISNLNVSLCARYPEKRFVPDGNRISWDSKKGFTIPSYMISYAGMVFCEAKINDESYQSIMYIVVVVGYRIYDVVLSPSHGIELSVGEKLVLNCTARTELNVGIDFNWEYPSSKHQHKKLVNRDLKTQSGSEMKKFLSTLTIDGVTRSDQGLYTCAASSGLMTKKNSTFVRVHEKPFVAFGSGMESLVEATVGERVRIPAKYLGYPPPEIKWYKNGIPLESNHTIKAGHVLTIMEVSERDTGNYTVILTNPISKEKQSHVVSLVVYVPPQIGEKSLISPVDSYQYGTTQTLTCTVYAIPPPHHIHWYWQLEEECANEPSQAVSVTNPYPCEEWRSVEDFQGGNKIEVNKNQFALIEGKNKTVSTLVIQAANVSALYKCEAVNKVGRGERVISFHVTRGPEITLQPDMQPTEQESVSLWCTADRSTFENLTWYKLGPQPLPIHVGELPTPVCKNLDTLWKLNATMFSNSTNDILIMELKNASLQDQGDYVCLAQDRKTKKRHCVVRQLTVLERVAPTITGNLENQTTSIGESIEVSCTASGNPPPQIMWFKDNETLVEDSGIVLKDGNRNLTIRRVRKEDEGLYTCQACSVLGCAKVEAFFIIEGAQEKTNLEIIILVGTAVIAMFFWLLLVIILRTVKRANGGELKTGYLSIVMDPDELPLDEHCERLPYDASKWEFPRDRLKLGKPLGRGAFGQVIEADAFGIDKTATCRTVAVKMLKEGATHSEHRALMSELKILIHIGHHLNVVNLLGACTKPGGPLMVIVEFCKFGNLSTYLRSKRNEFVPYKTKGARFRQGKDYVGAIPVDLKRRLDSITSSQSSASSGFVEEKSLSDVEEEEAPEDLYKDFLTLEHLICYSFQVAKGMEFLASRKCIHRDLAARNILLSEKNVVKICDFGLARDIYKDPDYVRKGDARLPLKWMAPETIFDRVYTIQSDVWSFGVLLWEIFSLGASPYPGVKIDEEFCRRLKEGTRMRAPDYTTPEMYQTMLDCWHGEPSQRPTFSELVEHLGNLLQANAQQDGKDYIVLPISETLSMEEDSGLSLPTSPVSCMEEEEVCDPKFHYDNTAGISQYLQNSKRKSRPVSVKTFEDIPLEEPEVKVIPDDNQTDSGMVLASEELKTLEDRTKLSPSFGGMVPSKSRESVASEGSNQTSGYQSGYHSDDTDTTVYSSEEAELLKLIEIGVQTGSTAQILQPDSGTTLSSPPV", "assay": "KINOMEscan", "type": "binding", "settings": "1.0 µM"}},
  "data": [
    {"smiles": "CN1CCN(C2CCC(n3cc(-c4ccc(Oc5ccccc5)cc4)c4c(N)ncnc43)CC2)CC1", "note": "(stereo not shown) [A-419259]", "values": [
      {"measurement": "reduction of kinase sensitivity to A-419259", "setting": "Hck T338M; Hck gatekeeper threonine to methionine, vs wild-type", "result": 2, "unit": "fold"},
      {"measurement": "IC50", "setting": "Hck T338M; read-out: A-419259 IC50, Fig 5B, Hck T338M, ATP at Km, mean ± SE, three independent determinations", "result": "0.0949 ± 0.0011", "unit": "µM"},
      {"measurement": "resistance to A-419259", "setting": "Fgr T338M; Fgr gatekeeper methionine substitution, vs wild-type", "result": 2.5, "unit": "fold"},
      {"measurement": "IC50", "setting": "Fgr T338M; read-out: A-419259 IC50, Fig 5B, Fgr T338M, ATP at Km, mean ± SE, three independent determinations", "result": "0.1606 ± 0.0011", "unit": "µM"},
      {"measurement": "IC50", "setting": "Fgr T338L", "result": "0.2184 ± 0.0011", "unit": "µM"},
      {"measurement": "IC50", "setting": "Lyn T338L", "result": "0.1297 ± 0.0011", "unit": "µM"},
      {"measurement": "resistance to A-419259 in in vitro kinase assays", "setting": "Flt3-D835Y kinase domain", "result": "about 6 fold"},
      {"measurement": "% Control", "setting": "[1]", "result": 83, "unit": "%"},
      {"measurement": "% Control", "setting": "CDK4-cyclinD1", "result": 27, "unit": "%"},
      {"measurement": "% Control", "setting": "[2]", "result": 99, "unit": "%"},
      {"measurement": "% Control", "setting": "MET(Y1235D)", "result": 100, "unit": "%"},
      {"measurement": "% Control", "setting": "NEK6", "result": 65, "unit": "%"},
      {"measurement": "% Control", "setting": "PIK3CA(I800L)", "result": 98, "unit": "%"},
      {"measurement": "% Control", "setting": "TEC", "result": 9, "unit": "%"},
      {"measurement": "% Control", "setting": "YES", "result": 0, "unit": "%"},
      {"measurement": "% Control", "setting": "CDC2L5", "result": 77, "unit": "%"},
      {"measurement": "% Control", "setting": "PKNB(M.tuberculosis)", "result": 82, "unit": "%"},
      {"measurement": "% Control", "setting": "LYN", "result": 1.7, "unit": "%"},
      {"measurement": "% Control", "setting": "VEGFR2", "result": 24, "unit": "%"}
    ]}
  ]
}
